Measured values as given in patent US20230233569A1 (Revolution Medicines, Inc., priority 2020, published 2023).
Like-named read-outs stand apart in the source and are kept apart here.

How the values were obtained:
KRAS Q61H = KRAS Q61H (Homo sapiens, UniProt P01116+P62937, Q61H); assay: Disruption of BRAF RBD interaction with Ras (FRET / MOA assay, with Cyclophilin A); format: biochemical; conditions: KRAS Q61H; read-out: KRAS Q61H FRET data IC50
In short: (§1)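 TR-FRET in 25 mM HEPES pH 7.3, 100 mM NaCl, 5 mM MgCl2, 0.1% BSA: 25 μM Cyclophilin A, 12.5 nM His6-Ras-GMPPNP, 50 nM GST-BRAF RBD with compound (10-point 3-fold series from 30 μM), 3 h at 25° C. Anti-His Eu/anti-GST APC added, 1.5 h more; IC50 from decreased FRET ratio versus DMSO.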

NRAS Q61R = NRAS Q61R (Homo sapiens, UniProt P01111+P62937, Q61R); assay: as above; format: biochemical; conditions: NRAS Q61R; read-out: NRAS Q61R FRET data IC50
Sequence of NRAS Q61R (P01111 whole entry Q61R): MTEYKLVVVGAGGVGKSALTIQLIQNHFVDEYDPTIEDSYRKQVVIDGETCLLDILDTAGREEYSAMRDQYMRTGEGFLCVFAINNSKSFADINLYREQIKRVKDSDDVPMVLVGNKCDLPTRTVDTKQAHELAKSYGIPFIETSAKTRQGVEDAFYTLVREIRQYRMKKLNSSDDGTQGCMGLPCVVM
Sequence of NRAS Q61R (P62937 whole entry): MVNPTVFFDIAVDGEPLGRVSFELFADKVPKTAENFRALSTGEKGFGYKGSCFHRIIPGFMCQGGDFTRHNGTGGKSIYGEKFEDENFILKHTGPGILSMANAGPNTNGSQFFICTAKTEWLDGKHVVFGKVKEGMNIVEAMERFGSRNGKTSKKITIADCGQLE
In short: as §1

NRAS Q61K = NRAS Q61K (Homo sapiens, UniProt P01111+P62937, Q61K); assay: as above; format: biochemical; conditions: NRAS Q61K; read-out: NRAS Q61K FRET data IC50
Sequence of NRAS Q61K (P01111 whole entry Q61K): as the sequence (P01111 whole entry Q61R) above, with R61K counted along it
Sequence of NRAS Q61K (P62937 whole entry): as the sequence (P62937 whole entry) above
In short: as §1

NCI-H358 (K-Ras G12C) = assay: CellTiter-Glo cell viability assay, 5-day treatment; format: cell-based; conditions: Homo sapiens
In short: (§2)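 Compounds were dispensed directly onto seeded cells and incubated for 5 days, then plates were equilibrated to room temperature for about 30 minutes before luminescence reading. Signals were expressed as percent of the mean DMSO control and fitted with a four-parameter logistic curve.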

AsPC-1 (K-Ras G12D) = assay: Potency assay: pERK, other cell line; format: cell-based; conditions: Homo sapiens, ASPC1
NRAS WT = NRAS WT (Homo sapiens, UniProt P01111+P62937); assay: Disruption of BRAF RBD interaction with Ras (FRET / MOA assay, with Cyclophilin A); format: biochemical; conditions: NRAS WT; read-out: NRAS WT FRET data IC50
Sequence of NRAS WT (P01111 whole entry): as the sequence (P01111 whole entry Q61R) above, with R61Q counted along it
Sequence of NRAS WT (P62937 whole entry): as the sequence (P62937 whole entry) above
In short: as §1

Capan-1 (K-Ras G12V) [1] = assay: CellTiter-Glo cell viability assay, 5-day treatment; format: cell-based; conditions: Homo sapiens, CAPAN-1, 120 h, 5-day treatment; read-out: Capan-1 Cell Viability assay data (K-Ras G12V, IC50)
In short: as §2

Capan-1 (K-Ras G12V) [2] = assay: Potency assay: pERK, other cell line; format: cell-based; conditions: Homo sapiens
[3] = NCI-H358, H358, K-Ras G12C, read-out: Additional H358 Cell Viability assay data (K-Ras G12C, IC50)

Sequence of KRAS Q61H (P01116 1-169 isoform P01116-2 Q61H limits assumed): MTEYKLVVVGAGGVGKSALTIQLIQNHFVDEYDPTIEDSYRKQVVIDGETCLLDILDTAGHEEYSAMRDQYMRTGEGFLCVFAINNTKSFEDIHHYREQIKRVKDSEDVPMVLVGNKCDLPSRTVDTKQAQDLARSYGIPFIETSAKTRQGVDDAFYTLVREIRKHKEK
Sequence of KRAS Q61H (P62937 whole entry): as the sequence (P62937 whole entry) above

Row | Compound | IC50 (KRAS Q61H) [nM] | IC50 (NRAS Q61R) [nM] | IC50 (NRAS Q61K) [nM] | IC50 (NCI-H358 (K-Ras G12C); [3]) [nM] | EC50 (AsPC-1 (K-Ras G12D)) [nM] | IC50 (NRAS WT) [nM] | IC50 (NCI-H358 (K-Ras G12C); NCI-H358, 120 h, 5-day treatment, read-out: H358 Cell Viability IC50) [nM] | IC50 (Capan-1 (K-Ras G12V) [1]) [nM] | EC50 (Capan-1 (K-Ras G12V) [2]) [nM]
1 | CCn1c(-c2cccnc2[C@H](C)OC)c2c3cc(ccc31)-c1cccc(c1)C[C@H](NC(=O)[C@H](C(C)C)N1CC[C@]3(CCN(C(=O)C#C[C@@H]4COCCN4C4COC4)C3)C1=O)C(=O)N1CCC[C@H](N1)C(=O)OCC(C)(C)C2 [Example A565] | 1000 to 10000 | > 10000 | > 10000 | 10 to 100 |  |  |  |  | 
2 | CCn1c(-c2cccnc2[C@H](C)OC)c2c3cc(ccc31)-c1csc(n1)C[C@H](NC(=O)[C@H](C(C)C)N(C)C(=O)N1CC(N(C)C(=O)C#CC(C)(C)N3CCC3)C1)C(=O)N1CCC[C@H](N1)C(=O)OCC(C)(C)C2 [Example A379] | 10 to 100 | 100 to 1000 | 100 to 1000 | < 10 |  |  |  |  | 
3 | C=CC(=O)N1CC[C@H](C(=O)N(C)[C@H](C(=O)N[C@H]2Cc3cc(O)cc(c3)-c3ccc4c(c3)c(c(-c3ccnc5c3[C@@H](OC)CC5)n4CC)CC(C)(C)COC(=O)[C@@H]3CCCN(N3)C2=O)C(C)C)C1 [Example A275] | 10 to 100 | 100 to 1000 | 100 to 1000 | < 10 |  |  |  |  | 
4 | C=CC(=O)N1CC[C@]2(C1)OCN(C(=O)N(C)[C@H](C(=O)N[C@H]1Cc3cccc(n3)-c3ccc4c(c3)c(c(-c3cccnc3[C@H](C)OC)n4CC)CC(C)(C)COC(=O)[C@@H]3CCCN(N3)C1=O)C(C)C)C2=O (atropisomer, axis not shown) [Example A652] | 1000 to 10000 | 1000 to 10000 | 1000 to 10000 | 100 to 1000 |  |  |  |  | 
5 | C=CC(=O)N1CCOC2(CCN(C(=O)N(C)[C@H](C(=O)N[C@H]3CN4CCC=C(C4)c4ccc5c(c4)c(c(-c4cccnc4[C@H](C)OC)n5CC)CC(C)(C)COC(=O)[C@@H]4CCCN(N4)C3=O)C(C)C)CC2)C1 [Example A563] | 1000 to 10000 | > 10000 | 1000 to 10000 | 100 to 1000 |  |  |  |  | 
6 | C=CS(=O)(=O)N1CC[C@H](C(=O)N(C)[C@H](C(=O)N[C@H]2Cc3nc(cs3)-c3ccc4c(c3)c(c(-c3cncnc3)n4CC)CC(C)(C)COC(=O)[C@@H]3CCCN(N3)C2=O)C(C)C)C1 [Example A170] | > 10000 | > 10000 | > 10000 | 100 to 1000 |  |  |  |  | 
7 | C=CC(=O)N1CC[C@@]2(CCN2C(=O)N(C)[C@H](C(=O)N[C@H]2Cc3nc(cs3)-c3ccc4c(c3)c(c(-c3cccnc3[C@H](C)OC)n4CC)CC(C)(C)COC(=O)C3CCCN(N3)C2=O)N(C)C)C1 (single isomer, unassigned) [Example A661] | 10 to 100 | 100 to 1000 | 10 to 100 | < 10 |  |  |  |  | 
8 | C=CC(=O)N1CC[C@H](C(=O)N(C)[C@H](C(=O)N[C@H]2Cc3cc(O)cc(c3)-c3ccc4c(c3)c(c(-c3cc(C)cnc3[C@H](C)OC)n4CC)CC(C)(C)COC(=O)[C@@H]3CCCN(N3)C2=O)C(C)C)C1 [Example A167] | 10 to 100 | 100 to 1000 | 100 to 1000 | 10 to 100 |  |  |  |  | 
9 | C=CC(=O)N1CC[C@@H](N(C)C(=O)N(C)[C@H](C(=O)N[C@H]2Cc3nc(cs3)-c3ccc4c(c3)c(c(-c3cccnc3[C@H](C)OC)n4CC)CC(C)(C)COC(=O)[C@@H]3CCCN(N3)C2=O)C(C)C)C1 [Example A349] | 10 to 100 | 100 to 1000 | 10 to 100 | 10 to 100 |  |  |  |  | 
10 | C=CC(=O)N1CCO[C@@]2(CCN(C(=O)N(C)[C@H](C(=O)N[C@H]3Cc4nc(cs4)-c4ccc5c(c4)c(c(-c4cccnc4[C@H](C)OC)n5CC(F)(F)F)CC(C)(C)COC(=O)C4CCCN(N4)C3=O)C(C)C)C2)C1 (stereo partly drawn) [Example A594] | 10 to 100 | 10 to 100 | 10 to 100 | < 10 |  |  |  |  | 
11 | CCn1c(-c2cccnc2[C@H](C)OC)c2c3cc(ccc31)-c1cccc(c1)C[C@H](NC(=O)[C@@H](CN1CC[C@]3(CCN(C(=O)C#C[C@H]4COCCN4C)C3)C1=O)C(C)C)C(=O)N1CCCC(N1)C(=O)OCC(C)(C)C2 (stereo partly drawn) [Example A592] | 1000 to 10000 | > 10000 | > 10000 | < 10 |  |  |  |  | 
12 | CCn1c(-c2cccnc2[C@H](C)OC)c2c3cc(ccc31)-c1csc(n1)C[C@H](NC(=O)[C@H](COC1CN(C(=O)C#CC(C)(C)N(C)C)C1)OC)C(=O)N1CCC[C@H](N1)C(=O)OCC(C)(C)C2 (atropisomer, axis not shown) [Example A705] | 1000 to 10000 | > 10000 | 1000 to 10000 | < 10 |  |  |  |  | 
13 | CC#CC(=O)N1CC[C@H](C(=O)N(C)[C@H](C(=O)N[C@H]2Cc3nc(cs3)-c3ccc4c(c3)c(c(-c3cccnc3[C@H](C)OC)n4CC)CC(C)(C)COC(=O)[C@@H]3CCCN(N3)C2=O)C(C)C)C1 [Example A168] | 1000 to 10000 | 1000 to 10000 | 1000 to 10000 | 10 to 100 |  |  |  |  | 
14 | CCn1c(-c2cccnc2[C@H](C)OC)c2c3cc(ccc31)N1CCO[C@@](C)(CC(NC(=O)[C@H](C(C)C)N(C)C(=O)C3(F)CCN(C(=O)C#CC(C)(C)N(C)C)CC3)C(=O)N3CCC[C@H](N3)C(=O)OCC(C)(C)C2)C1 (stereo partly drawn) [Example A550] | 1000 to 10000 | 1000 to 10000 | 1000 to 10000 | < 10 |  |  |  |  | 
15 | C=CC(=O)N1CCO[C@H]2CN(C(=O)N(C)[C@H](C(=O)N[C@H]3Cc4cccc(n4)-c4ccc5c(c4)c(c(-c4cccnc4[C@H](C)OC)n5CC(F)(F)F)CC(C)(C)COC(=O)C4CCCN(N4)C3=O)C(C)C)C[C@H]21 (stereo partly drawn) [Example A595] | 100 to 1000 | 100 to 1000 | 100 to 1000 | < 10 |  |  |  |  | 
16 | C=CC(=O)N1CCOC2(CCN(C(=O)N(C)[C@H](C(=O)N[C@H]3Cc4cccc(c4)-c4ccc5c(c4)c(c(-c4cccnc4[C@H](C)OC)n5CC(F)(F)F)CC(C)(C)COC(=O)C4CCCN(N4)C3=O)C(C)C)CC2)C1 (stereo partly drawn) [Example A608] | 10 to 100 | 100 to 1000 | 100 to 1000 | 10 to 100 |  |  |  |  | 
17 | C=CC(=O)N1CCO[C@H]2CN(C(=O)N(C)[C@H](C(=O)N[C@H]3CN4CCC=C(C4)c4ccc5c(c4)c(c(-c4cccnc4[C@H](C)OC)n5CC)CC(C)(C)COC(=O)[C@@H]4CCCN(N4)C3=O)C(C)C)C[C@H]21 [Example A552] | 100 to 1000 | 1000 to 10000 | 1000 to 10000 | < 10 |  |  |  |  | 
18 | C=CC(=O)N1CCO[C@H]2CN(C(=O)N(C)[C@H](C(=O)N[C@H]3Cc4cccc(c4)-c4ccc5c(c4)c(c(-c4cccnc4[C@H](C)OC)n5CC)CC(C)(C)COC(=O)C4CCCN(N4)C3=O)C(C)C)C[C@H]21 (stereo partly drawn) [Example A610] | 100 to 1000 | 100 to 1000 | 100 to 1000 | < 10 |  |  |  |  | 
19 | C=CC(=O)N1CC[C@@H](N(C)C(=O)N(C)[C@H](C(=O)N[C@H]2Cc3nc(cs3)-c3ccc4c(c3)c(c(-c3cccnc3[C@H](C)OC)n4CC(F)(F)F)CC(C)(C)COC(=O)[C@@H]3CCCN(N3)C2=O)C(C)C)C1 (atropisomer, axis not shown) [Example A728] | 100 to 1000 | 100 to 1000 | 100 to 1000 | 10 to 100 |  |  |  |  | 
20 | C=CC(=O)N(C)C1CCN(C(=O)N(C)[C@H](C(=O)N[C@H]2Cc3nc(cs3)-c3ccc4c(c3)c(c(-c3cccnc3[C@H](C)OC)n4CC)CC(C)(C)COC(=O)[C@@H]3CCCN(N3)C2=O)C(C)C)C1 (stereo partly drawn) [Example A384] | 10 to 100 | 100 to 1000 | 10 to 100 | < 10 |  |  |  |  | 
21 | CCn1c(-c2cccnc2[C@H](C)OC)c2c3cc(ccc31)-c1cc(O)cc(c1)C[C@H](NC(=O)[C@H](C(C)C)N(C)C(=O)[C@H]1CCN(C(=O)OC)C1)C(=O)N1CCC[C@H](N1)C(=O)OCC(C)(C)C2 (atropisomer, axis not shown) [Example A3] | 10 to 100 | 100 to 1000 | 100 to 1000 |  | 144 | 10 to 100 | 57 | 10 to 100 | 8
22 | C=CC(=O)N1CCOC2(CCN(C(=O)N(C)[C@H](C(=O)N[C@H]3Cc4cc(CF)cc(c4)-c4ccc5c(c4)c(c(-c4cccnc4[C@H](C)OC)n5CC(F)(F)F)CC(C)(C)COC(=O)C4CCCN(N4)C3=O)C(C)C)CC2)C1 (stereo partly drawn) [Example A605] | 10 to 100 | 100 to 1000 | 100 to 1000 | 10 to 100 |  |  |  |  | 
23 | C=CC(=O)N1CCO[C@H]2CCN(C(=O)N(C)[C@H](C(=O)N[C@H]3Cc4nc(cs4)-c4ccc5c(c4)c(c(-c4cccnc4[C@H](C)OC)n5CC)CC(C)(C)COC(=O)C4CCCN(N4)C3=O)C(C)C)C[C@@H]21 (stereo partly drawn) [Example A609] | 10 to 100 | 10 to 100 | 10 to 100 | < 10 |  |  |  |  | 
